Assay results as given in the supplement of paper PMC10307832.

Tests used:
Assay in all cases: relative viability (nuclei count vs DMSO), 5 days (fraction); higher = more cells survive
[1] = compound: N=C1NC(=O)/C(=C/c2ccc(O)cc2)S1 [Mirin] + CC(=O)Nc1cccc(-n2c(=O)n(C3CC3)c(=O)c3c(Nc4ccc(I)cc4F)n(C)c(=O)c(C)c32)c1 [Trametinib] (partner 0.02 µM)
Outline: (§1)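 A single step with final 0.05% Triton X-100, 1% formaldehyde and 1 ug/ml Hoechst fixed the cells and stained nuclei 5 days after treatment. Lung cancer cell lines in 1536-well plates had been treated by pin tool the day after seeding with one drug alone or a fixed anchor-drug dose plus five library-drug doses (not always all listed) in √10 steps, and nuclei were counted on 4× images. Relative viability is the ratio of nuclei in treated wells to nuclei in vehicle wells, taken as the median of duplicate plates.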

[2] = compound: CCn1c(-c2nonc2N)nc2cnc(Oc3cccc(NC(=O)c4ccc(OCCN5CCOCC5)cc4)c3)cc21 + Nc1nc2[nH]cc(CCc3ccc(C(=O)N[C@@H](CCC(=O)O)C(=O)O)cc3)c2c(=O)[nH]1 [Pemetrexed] (partner 0.2 µM)
Outline: as §1

[3] = compound: CCC1=CN=CN=C1N2CCN(CC2)CC3=NC4=C(N3)C=C(C=C4)C(F)(F)F + O=C(c1cc(Cc2n[nH]c(=O)c3ccccc23)ccc1F)N1CCN(C(=O)C2CC2)CC1 [Olaparib] (partner 8 µM)
Outline: as §1

[4] = compound: CCn1c(-c2nonc2N)nc2cnc(Oc3cccc(NC(=O)c4ccc(OCCN5CCOCC5)cc4)c3)cc21 + CS(=O)(=O)N1CCN(Cc2cc3nc(-c4cccc5[nH]ncc45)nc(N4CCOCC4)c3s2)CC1 [Pictilisib] (partner 1 µM)
Outline: as §1

Row | Cell Line | relative viability ([1]; first compound 0.25 µM) | relative viability ([1]; first compound 2.5 µM) | relative viability ([1]; first compound 7.906 µM) | relative viability ([1]; first compound 25 µM) | relative viability ([2]; first compound 0.04 µM) | relative viability ([2]; first compound 0.1265 µM) | relative viability ([2]; first compound 0.4 µM) | relative viability ([2]; first compound 1.265 µM) | relative viability ([2]; first compound 4 µM) | relative viability ([3]; first compound 0.04 µM) | relative viability ([3]; first compound 0.1265 µM) | relative viability ([3]; first compound 0.4 µM) | relative viability ([3]; first compound 1.265 µM) | relative viability ([3]; first compound 4 µM) | relative viability ([4]; first compound 0.04 µM) | relative viability ([4]; first compound 0.1265 µM) | relative viability ([4]; first compound 1.265 µM) | relative viability ([4]; first compound 4 µM) | relative viability ([1]; first compound 0.7906 µM) | relative viability ([4]; first compound 0.4 µM)
1 | NCI-H23 | 0.358 | 0.384 | 0.279 | 0.298 | 0.864 | 0.74 | 0.442 | 0.532 | 0.431 | 0.353 | 0.4 | 0.29 | 0.345 | 0.243 | 0.721 | 0.613 | 0.433 | 0.343 |  | 
2 | SK-LU-1 | 0.519 | 0.568 | 0.383 | 0.538 | 0.918 | 0.906 | 0.772 | 0.457 | 0.372 | 0.452 | 0.438 | 0.47 | 0.443 | 0.442 | 0.686 | 0.448 | 0.336 | 0.416 | 0.519 | 0.432
3 | HCC-366 | 0.382 | 0.33 | 0.337 | 0.28 | 0.166 | 0.173 | 0.131 | 0.0447 | 0.0523 | 0.38 | 0.355 | 0.29 | 0.349 | 0.335 | 0.124 | 0.151 | 0.0463 | 0.0657 | 0.348 | 0.0942
4 | SW 1573 | 0.647 | 0.567 | 0.51 | 0.369 | 0.913 | 0.821 | 0.535 | 0.32 | 0.261 | 0.447 | 0.462 | 0.45 | 0.443 | 0.379 | 0.545 | 0.507 | 0.487 | 0.312 | 0.557 | 0.492
5 | HCC-44 | 0.981 | 1.08 | 1.06 | 1.09 | 0.62 | 0.652 | 0.547 | 0.678 | 0.425 | 1.02 | 0.963 | 0.978 | 0.99 | 0.966 | 0.557 | 0.529 | 0.236 | 0.244 | 1.36 | 0.276
6 | A-427 | 0.734 | 0.718 | 0.677 | 0.706 | 0.876 | 0.708 | 0.529 | 0.228 | 0.318 | 0.683 | 0.72 | 0.636 | 0.698 | 0.595 | 0.879 | 0.674 | 0.526 | 0.402 | 0.647 | 0.666
7 | NCI-H441 | 0.528 | 0.428 | 0.557 | 0.508 | 0.261 | 0.26 | 0.251 | 0.243 | 0.252 | 0.459 | 0.543 | 0.543 | 0.458 | 0.529 | 0.582 | 0.541 | 0.386 | 0.376 | 0.404 | 0.438
8 | LK-2 | 0.653 | 0.609 | 0.421 | 0.42 | 0.308 | 0.354 | 0.151 | 0.139 | 0.265 | 0.817 | 0.675 | 0.603 | 0.517 | 0.712 | 0.711 | 0.777 | 0.255 | 0.392 | 0.577 | 0.615
9 | NCI-H2023 | 0.716 | 0.668 | 0.56 | 0.597 | 0.231 | 0.155 | 0.214 | 0.163 | 0.153 | 0.53 | 0.48 | 0.493 | 0.418 | 0.46 | 0.315 | 0.293 | 0.231 | 0.221 | 0.558 | 0.199
10 | NCI-H647 | 0.475 | 0.548 | 0.524 | 0.474 | 0.21 | 0.16 | 0.143 | 0.122 | 0.137 | 0.458 | 0.528 | 0.452 | 0.519 | 0.408 | 0.614 | 0.307 | 0.207 | 0.276 | 0.605 | 0.249
11 | SK-MES-1 | 0.505 | 0.571 | 0.585 | 0.716 | 1.08 | 0.941 | 0.829 | 0.66 | 0.46 | 0.657 | 0.643 | 0.684 | 0.592 | 0.673 | 0.365 | 0.355 | 0.422 | 0.323 | 0.569 | 0.386
12 | NCI-H1793 | 0.497 | 0.39 | 0.352 | 0.607 | 0.542 | 0.754 | 0.69 | 0.512 | 0.502 | 0.736 | 0.754 | 0.697 | 0.564 | 0.784 | 0.336 | 0.413 | 0.312 | 0.328 |  | 0.295
13 | NCI-H3122 | 0.221 | 0.25 | 0.176 | 0.221 | 0.217 | 0.214 | 0.183 | 0.17 | 0.202 | 0.663 | 0.55 | 0.551 | 0.54 | 0.56 | 0.879 | 0.672 | 0.674 | 0.542 | 0.218 | 0.516
14 | LCLC-103H | 0.744 | 0.735 | 0.735 | 0.833 | 0.394 | 0.444 | 0.36 | 0.345 | 0.419 | 0.798 | 0.733 | 0.743 | 0.718 | 0.707 | 0.764 | 0.596 | 0.455 | 0.576 | 0.799 | 0.435
15 | NCI-H520 | 0.542 | 0.659 | 0.603 | 0.477 | 1.01 | 0.662 | 0.634 | 0.372 | 0.336 | 0.291 | 0.415 | 0.349 | 0.333 | 0.298 | 0.326 | 0.31 | 0.265 | 0.182 | 0.571 | 0.256
16 | NCI-H1755 | 0.745 | 0.755 | 0.771 | 0.841 | 0.46 | 0.41 | 0.439 | 0.364 | 0.355 | 0.915 | 0.903 | 0.856 | 0.82 | 0.75 | 0.484 | 0.391 | 0.331 | 0.3 | 0.793 | 0.327
17 | NCI-H358 | 0.123 | 0.163 | 0.11 | 0.13 | 0.176 | 0.169 | 0.19 | 0.178 | 0.151 | 0.659 | 0.607 | 0.542 | 0.62 | 0.548 | 0.339 | 0.401 | 0.384 | 0.216 | 0.146 | 0.316
18 | NCI-H1734 | 0.688 | 0.646 | 0.633 | 0.675 | 0.397 | 0.401 | 0.307 | 0.281 | 0.29 | 0.63 | 0.609 | 0.587 | 0.584 | 0.557 | 0.47 | 0.415 | 0.309 | 0.249 | 0.749 | 0.282
19 | EPLC-272H | 0.308 | 0.281 | 0.3 | 0.317 | 0.392 | 0.328 | 0.253 | 0.239 | 0.119 | 0.687 | 0.693 | 0.835 | 0.617 | 0.695 | 0.406 | 0.341 | 0.258 | 0.281 |  | 0.181
20 | NCI-H2228 | 0.627 | 0.551 | 0.382 | 0.423 | 0.328 | 0.289 | 0.302 | 0.285 | 0.333 |  | 0.608 | 0.551 | 0.658 | 0.488 | 0.607 | 0.3 | 0.605 | 0.254 | 0.39 | 0.229
